Test results from patent publication US20050171358A1 (priority 2002, published 2005).

Legend:
Pyricularia oryzae = format: in vivo; conditions: 200 ppm spray on rice (Koshihikari, 3 leaf stage), inoculated next day; lesion numbers on third leaves after 7 days in green house, graded by Table 5
[1] = tested on: Colletotrichum lagenarium; conditions: 200 ppm spray on cucumber (3 leaf stage), inoculated next day; lesion numbers on first and second leaves after 7 days in green house, graded by Table 5

Row | Compound | Evaluation (effect for rice blast) (Pyricularia oryzae) | Evaluation (effect for cucumber anthracnose) [1]
1 | COc1ccc(-c2cc(CNC(=O)c3ccccc3)on2)cc1OC [III-67, N-{[3-(3,4-dimethoxyphenyl)-5-isoxazolyl]methyl}benzamide] | 5 (0) | 5 (0)
2 | COc1ccc(-c2cc(CNC(=O)c3ccc(C)cc3)on2)cc1OC [III-68, N-{[3-(3,4-dimethoxyphenyl)-5-isoxazolyl]methyl}-4-methylbenzamide] | 5 (0) | 5 (0)
3 | Cc1ccc(C(=O)NCc2cc(-c3ccc(C)c(F)c3)no2)cc1 [III-73, N-{[3-(3-fluoro-4-methylphenyl)-5-isoxazolyl]methyl}-4-methylbenzamide] | 5 (0) | 4 (1˜5)
4 | COc1ccc(-c2cc(CNC(=O)c3ccc(C)cc3)on2)c(F)c1 [III-74, N-{[3-(2-fluoro-4-methoxyphenyl)-5-isoxazolyl]methyl}-4-methylbenzamide] | 5 (0) | 5 (0)
5 | Cc1ccc(C(=O)NCc2cc(-c3ccccc3)no2)cc1 [III-107, N-[(3-phenyl-5-isoxazolyl)methyl]-4-methylbenzamide] | 5 (0) | 5 (0)
6 | CC(C)(C)c1ccc(C(=O)NCc2cc(-c3ccccc3)no2)cc1 [III-108, N-[(3-phenyl-5-isoxazolyl)methyl]-4-t-butylbenzamide] | 2 (11˜20) | 3 (6˜10)
7 | COc1ccccc1C(=O)NCc1cc(-c2ccccc2)no1 [III-109, N-[(3-phenyl-5-isoxazolyl)methyl]-2-methoxybenzamide] | 4 (1˜5) | 5 (0)
8 | COc1ccc(C(=O)NCc2cc(-c3ccccc3)no2)cc1 [III-111, N-[(3-phenyl-5-isoxazolyl)methyl]-4-methoxy benzamide] | 5 (0) | 5 (0)
9 | O=C(NCc1cc(-c2ccccc2)no1)c1ccc(F)cc1 [III-121, N-[(3-phenyl-5-isoxazolyl)methyl]-4-fluorobenzamide] | 5 (0) | 5 (0)
10 | O=C(NCc1cc(-c2ccccc2)no1)c1ccccc1Cl [III-122, N-[(3-phenyl-5-isoxazolyl)methyl]-2-chlorobenzamide] | 4 (1˜5) | 4 (1˜5)
11 | O=C(NCc1cc(-c2ccccc2)no1)c1cccc(Cl)c1 [III-123, N-[(3-phenyl-5-isoxazolyl)methyl]-3-chlorobenzamide] | 5 (0) | 5 (0)
12 | O=C(NCc1cc(-c2ccccc2)no1)c1ccc(Cl)cc1 [III-124, N-[(3-phenyl-5-isoxazolyl)methyl]-4-chlorobenzamide] | 5 (0) | 4 (1˜5)
13 | O=C(NCc1cc(-c2ccccc2)no1)c1ccc(C(F)(F)F)cc1 [III-130, N-[(3-phenyl-5-isoxazolyl)methyl]-4-trifluoromethylbenzamide] | 4 (1˜5) | 4 (1˜5)
14 | N#Cc1ccc(C(=O)NCc2cc(-c3ccccc3)no2)cc1 [III-133, N-[(3-phenyl-5-isoxazolyl)methyl]-4-cyanobenzamide] | 4 (1˜5) | 4 (1˜5)
15 | Cc1ccc(-c2cc(CNC(=O)c3ccccc3O)on2)cc1 [III-134, N-[(3-(4-tolyl)-5-isoxazolyl)methyl]-2-hydroxybenzamide] | 3 (6˜10) | 5 (0)
16 | O=C(NCc1cc(-c2ccccc2)no1)c1ccc([N+](=O)[O-])cc1 [III-137, N-[(3-phenyl-5-isoxazolyl)methyl]-4-nitrobenzamide] | 4 (1˜5) | 5 (0)
17 | O=C(NCc1cc(-c2ccccc2)no1)c1ccc(OC(F)(F)F)cc1 [III-139, N-[(3-phenyl-5-isoxazolyl)methyl]-4-trifluoromethoxybenzamide] | 5 (0) | 5 (0)
18 | COc1ccc(C(=O)NCc2cc(-c3ccccc3)no2)cc1OC [III-156, N-[(3-phenyl-5-isoxazolyl)methyl]-3,4-dimethoxybenzamide] | 4 (1˜5) | 4 (1˜5)
19 | Cc1ccc(-c2cc(CNC(=O)c3ccc(C)c(F)c3)on2)cc1 [III-162, N-[(3-(4-tolyl)-5-isoxazolyl)methyl]-3-fluoro-4-methylbenzamide] | 5 (0) | 5 (0)
20 | O=C(NCc1cc(-c2ccccc2)no1)c1ccccn1 [III-174, (3-phenyl-5-isoxazolyl)methylaminocarbonyl-2-pyridine] | 4 (1˜5) | 4 (1˜5)
21 | O=C(NCc1cc(-c2ccccc2)no1)c1cccs1 [III-177, (3-phenyl-5-isoxazolyl)methylaminocarbonyl-2-thiophene] | 4 (1˜5) | 4 (1˜5)
22 | O=C(NCc1cc(-c2ccccc2)no1)c1ccc2c(c1)OCO2 [III-180, 5-(3-phenyl-5-isoxazolyl)methylaminocarbonyl-1,3-benzodioxol] | 5 (0) | 5 (0)
23 | O=C(/C=C/c1ccccc1)NCc1cc(-c2ccccc2)no1 [III-201, (E)-N-[(3-phenyl-5-isoxazolyl)methyl]-3-phenylpropenamide] | 5 (0) | 5 (0)
24 | O=C(NCc1cc(-c2ccccc2)no1)N1CCc2ccccc21 [III-208, N-[(3-phenyl-5-isoxazolyl)methylaminocarbonyl]indoline] | 4 (1˜5) | 4 (1˜5)
25 | Cc1ccc(C(=O)NCc2cc(/C=C/c3ccccc3)no2)cc1 [III-210, N-{[3-(2-phenylethenyl)-5-isoxazolyl)methyl]-4-methylbenzamide] | 5 (0) | 5 (0)
26 | CO/N=C/c1ccc(-c2cc(CNC(=O)c3ccc(C)cc3)on2)cc1 [III-214] | 4 (1˜5) | 5 (0)
27 | COc1ccc(C(=O)NCc2cc(-c3ccc(OC)cc3F)no2)cc1 [III-215, N-{[3-(2-fluoro-4-methoxyphenyl)-5-isoxazolyl]methyl}-4-methoxylbenzamide] | 5 (0) | 5 (0)
28 | COc1ccc(C(=O)NCc2cc(C=C(C)C)no2)cc1 [III-216, N-{[3-(2-methyl-1-propenyl)-5-isoxazolyl]methyl}-4-methoxylbenzamide] | 4 (1˜5) | 4 (1˜5)
29 | Cc1ccc(C(=O)NCc2cc(-c3ccccn3)no2)cc1 [III-217, N-{[3-(2-pyridyl)-5-isoxazolyl]methyl}-4-methylbenzamide] | 4 (1˜5) | 4 (1˜5)
